Laboratory results from patent publication US9572760B2, “Uses of compounds and mixtures from Antrodia cinnamomea mycelia” (Simpson Biotech Co., Ltd., priority 2013, dated 2017).

Experiments:
cirrhotic animals = assay: Biochemical analysis of serum (liver damage parameters) in DEN cirrhotic animal model; assay type: in vivo, Wistar rats; details: compound B 7 mg/kg, compound C 14 mg/kg, ACM 320 mg/kg/day, gastric tube, 5th to 11th week, vs control group
Protocol: Samples of 1 ml blood were gathered from the retro-orbital plexus of each […] and immediately centrifuged at 1300×g at 4° C., plasma was kept at −20° C. for liver function tests. Alanine aminotranferease (ALT), aspartate aminotransferase (AST), total bilirubin and Gamma-glutamyl transpeptidase (γ-GT) levels were determined using commercial enzymatic kits with a colorimetric analyzer (Dri-Chem 3000, Fuji Photo Film Co, Tokyo, Japan).

HSC = HSC apoptosis by cell death detection ELISA; assay type: cell-based; details: 24-80 μM; 24 h, 48 h and 72 h
Protocol: Apoptosis was detected with a sandwich immunoassay system using a cell death detection ELISA kit (Roche Diagnostic Inc.). Roche's Cell Death Detection ELISA kit qualitatively and quantitatively detects the amount of cleaved DNA/histone complexes (nucleosomes) in a given sample using a sandwich-enzyme-immunoassay-based method. The cells (1×10^4 cells/well) were seeded in 100 μl medium in a 96-well plate (Nunc, Denmark) and cultured for 24 h to allow the cells to attach and then treated with three different concentrations (8 μM, 24 μM and 80 μM) of either Compound A, B, C and D for 24 h, 48 h and 72 h and the plates were incubated in 37° C. After incubation, the 96 well plates were centrifuged for 10 min at 200×g and removed supernatant and discard, then added 200 μl of lysis buffer per well using multipipetman and incubated 30 min at room temperature, microplates were centrifuged the lysate at 200×g for 10 min. After the centrifuge, 20 μl of the supernatant was transferred into the streptavidin-coated microplate, then added 80 μl of immunoreagent to each well. The microplate was covered with an adhesive foil and incubated on a shaker under gentle shaking for 2 hour at room temperature. After the incubation period, microplates were washed three times with 250-300 μl incubation buffer and 100 μl ABTS solution was added and incubated for 30 min or until color is sufficient for photometric. ABTS Stop solution was added and absorbance of the samples was measured using ELISA reader at 405 nm, reference wavelength at 490 nm.

[1] = tested on: CuZnSOD, MnSOD, Catalase, Glutathione peroxidase, NADPH oxidase; assay: Real-time RT-PCR of oxidative stress genes (anti-oxidant enzymes, NADPH oxidase) in liver of cirrhotic animals; assay type: in vivo, Wistar rats; details: compound B 7 mg/kg, compound C 14 mg/kg, ACM 320 mg/kg
Protocol: Sample tissues of rat livers were measured about 0.5×0.5 cm in area. Each of tissue was homogenized in 1 mL of TRIzol buffer (Invitrogen, Carlsbad, Calif., USA) with a motorized pestle, and then mixed with 0.5 mL chloroform/isoamyl alcohol (24:1), and was centrifuged at 12,000×g for 10 min at 4° C. The supernatant was transferred to a fresh tube, and isopropanol was added, mix well and stored at −80° C. overnight. The reaction mixture was centrifuged at 12,000×g for 30 min at 4° C. to produce a rude RNA pallet, the pellet was washed with 70% ethanol and air-dried. The concentrations of total RNA were measured by absorbance at 260 nm using a NanoDrop ND-1000 (NanoDrop, USA). Reverse transcription reaction was performed using a commercially available set of High Capacity RNA-to-cDNA Kit (Applied Biosystems, USA). cDNA was prepared from 2 μg of total RNA per 20 μl reaction, according to the manufacturer's instructions—37° C. for 60 minutes, 95° C. for 5 minutes, and hold at 4° C. The resulting cDNA was to a final concentration of 100 ng/μl and constituted a matrix in further experiments. Amplification and detection the gene expression by real-time PCR were performed using StepOne plus Real-time PCR System (Applied Biosystems, USA). Samples were assayed in a 10 μl reaction mixture containing 2 μl of template DNA, 5 μl of 2× TaqMan PCR Master Mix (Applied Biosystems, Life Technologies, Foster City, Calif., USA), 0.5 μl of 20× assay mix containing probe, forward and reverse primer (Applied Biosystems, Life Technologies, Foster City, Calif., USA), whereby qPCR targets with the following information were used: (a) Rat α-SMA, Assay ID Rn01759928_g1, (b) Rat TIMP, Assay ID Rn00587558_m1, (c) Rat TGF-β1, Assay ID Rn00572010_m1, (d) Rat Collagen I, Assay ID Rn 01463838_m1, (e) Rat CuZnSOD, Assay ID Rn00566938_m1, (f) Rat MnSOD, Assay ID Rn00690587_g1, (g) Rat Catalase, Assay ID Rn00560930_m1, (h) Rat Glutathione peroxidase, Assay ID Rn00577994_g1, (i) Rat NADPH oxidase, Assay ID Rn00585380_m1 and (j) Rat GAPDH, Assay ID Rn1462662_g1. To control variation in mRNA concentration, all results were normalized to the housekeeping gene, GAPDH. Relative quantitation was performed using the comparative ΔΔCt method according to the manufacture's instructions. The cycling conditions used were as follows: 50° C. for 2 min, 95° C. for 10 min followed by 40 cycles of 95° C. for 15 s and 60° C. for 1 min each.

Row | Compound | serum Alanine aminotranferease (ALT) level (cirrhotic animals) | serum Gamma-glutamyl transpeptidase (γ-GT) level (cirrhotic animals) | serum aspartate aminotransferase (AST) level (cirrhotic animals) | serum total bilirubin level (cirrhotic animals) | apoptosis of HSC (cell death detection assay) (HSC) | Catalase gene expression in liver [1] | CuZnSOD gene expression in liver [1] | Glutathione peroxidase gene expression in liver [1] | MnSOD gene expression in liver [1] | NADPH oxidase gene expression in liver [1]
1 | CC(C)=CCOc1ccc(C2=C(CC(C)C)C(=O)NC2=O)cc1 [Compound B, 3-isobutyl-4-[4-(3-methyl-2-butenyloxy)phenyl]-1H-pyrrol-2,5-dione] | significantly reduced | significantly reduced | significantly reduced | significantly reduced | apoptosis of HSC | up-regulated significantly | up-regulated significantly | up-regulated significantly | up-regulated significantly | down-regulated significantly
2 | CC(C)=CCOc1ccc(C2=C(CC(C)C)C(=O)N(O)C2=O)cc1 [Compound C, 3-isobutyl-4-[4-(3-methyl-2-butenyloxy)phenyl]-1H-pyrrol-1-ol-2,5-dione] | significantly reduced | significantly reduced | significantly reduced | significantly reduced | apoptosis of HSC | up-regulated significantly | up-regulated significantly | up-regulated significantly | up-regulated significantly | down-regulated significantly
